Usually Kd stands for the equilibrium constant for the complex coming apart. As a reminder, the IC50 is the concentration that gives 50% inhibition.

Test [1] has as its target human neutrophils (receptor sites for IL-8 on neutrophils) (human). The test can be described thus: competition with 125I-IL-8 on human neutrophils.
Test [2] shares this target. The test can be described thus: competition with 125I-IL-8 1-72 on human neutrophils, LIGAND fit.
In test [3] the test system is human neutrophils. Format: cell-based, human neutrophils from donor blood buffy coats. The procedure:
For the biological assays referred to in the following examples, human neutrophils isolated from buffy coats of donor blood were placed in a final suspension of 10^8 cells/ml kept at 0.15mM MaCl, 0.05 mM CaCl2 at 10° C. until use. Competition binding studies were performed according to the following protocol. […] C. […] The supernatant is aspirated, and the bottom of the tubes containing the cell sediment is sliced off and counted in a MR 480 automated µ counter (kontron).
(§1) The effect of amino acid replacement on the activity of interleukin-8 analogues was also explored, using compounds prepared by t-boc-based solid phase peptide synthesis.

The test system of test [4] is human neutrophils. Format: cell-based, human neutrophils from donor blood buffy coats. The conditions noted are these: read-out: IC50 (µM). As to the method: Analog cytokines having residues 5-72; 6-72; and 7-72; respectively, were synthesized according to the method described herein. […] The assay was performed as previously described and elastase release is expressed in relative fluorescence units (1 unit=1 pMol 7-amino-4-methylcoumarine produced min). Mean values were determined from duplicate determinations form one out of three similar experiments performed with different neutrophil preparations.
as §1

Test [5] relates to human neutrophils. Format: cell-based, human neutrophils from donor blood buffy coats. The conditions noted are these: read-out: Binding Kd. As to the method:
For the biological assays referred to in the following examples, human neutrophils isolated from buffy coats of donor blood were placed in a final suspension of 10^8 cells/ml kept at 0.15mM MaCl, 0.05 mM CaCl2 at 10° C. until use. Competition binding studies were performed according to the following protocol. […] C. […] Cells are separated from unbound radioactivity by centrifugation for 1 min at 8000× g through 350 µl of phosphate-buffered saline (PBS) containing 60 mg/ml BSA (wash medium) in a Hettich Microliter centrifuge model 2020. The supernatant is aspirated, and the bottom of the tubes containing the cell sediment is sliced off and counted in a MR 480 automated µ counter (kontron). The Kd values were determined by calculating nonlinear least squares fits of the measured data, based on a single binding site model, and determining the Kd using a LIGAND program as described by Moser, et al (1991) J. Biol. Chem. 266: 10666-10671.
(§2) Cytokine analogs formed from the monomers described in Table 1 were compared for biological activity according to in vitro assays described herein. […] The binding dissociation constants (Kd values) were calculated from the competitive binding data shown in FIGS. 5 and 6 as described above.

Test [6] concerns human neutrophils. Format: cell-based, human neutrophils from donor blood buffy coats. Conditions: read-out: Elastase ED50; n = 3.
Text: (§3) In a valuable aspect of the present invention, there are provided IL-8 analogs that are antagonists of IL-8 activity. Antagonists of IL-8 activity are characterized by the ability to reduce one or more of the measurable consequences of IL-8-mediated neutrophil stimulation. Biological assays are known which may be used to test for IL-8 activities or an ability to block or inhibit IL-8. The in vitro assays require human neutrophils which may be isolated from donor blood by known procedures such as that described by Peveri, et al (1988) J. Exp. Med. 167: 1547-1559. The assays include measurement of elastase release, cytosolic free calcium changes, and chemotaxis and may be performed according to methods described by Schroder, et al (1987) J. Immunol. 139: 3474-3483; and, Peveri, et al (1988) [supra].
(§4) For the biological assays referred to in the following examples, human neutrophils isolated from buffy coats of donor blood were placed in a final suspension of 10^8 cells/ml kept at 0.15mM MaCl, 0.05 mM CaCl2 at 10° C. until use. Competition binding studies were performed according to the following protocol. IL-8 was iodinated with Enzymobead reagent (Bio-Rad) as instructed by the supplier. Briefly, 1 nmol of IL-8 was mixed with 50 µl of rehydrated Enzymobead reagent, 50 µl of 0.2M potassium phosphate, pH 7.2, 2 mCl or Na^125 I, and […] of 2% D(+)-glucose and incubated for 30 min at 21° C. […] The ^125 I-IL-8 preparations were each analyzed for purity (SDS-polyacrylamide gel electrophoresis) and binding capacity (self-displacement analysis using freshly isolated human neutrophils) prior to use. Neutrophils ([…]) in 120 µl of RPMI 1640 medium containing 20 mM Hepes, pH 7.3, and 10 mg/ml BSA (binding medium) are incubated on ice (0°-4° C.) for 90 min with 1 nM ^125 I-IL-8 in the presence or absence of cold competitor (10^-11 to 10^-5). Cells are separated from unbound radioactivity by centrifugation for 1 min at 8000× g through 350 µl of phosphate-buffered saline (PBS) containing 60 mg/ml BSA (wash medium) in a Hettich Microliter centrifuge model 2020. The supernatant is aspirated, and the bottom of the tubes containing the cell sediment is sliced off and counted in a MR 480 automated µ counter (kontron). The Kd values were determined by calculating nonlinear least squares fits of the measured data, based on a single binding site model, and determining the Kd using a LIGAND program as described by Moser, et al (1991) J. Biol. Chem. 266: 10666-10671.
as §2
Shown are determinations at the indicated concentrations of IL-8 1-72: .oval-solid., 1-72; .tangle-solidup., 3-72; .increment., 4-72; .diamond., 5-72; .box-solid., 6-72; .quadrature., 7-72; and .smallcircle., 77-residue IL-8. Unidirectional error bars indicate the standard deviations. Data are representative of three assays using different neutrophil preparations.
FIG. 3 is a graph showing neutrophil elastase release activity of COOH-terminal deletion IL-8 analogs. Shown are determinations at the indicated concentrations of IL-8 1-72: .oval-solid., 1-72; .smallcircle., 1-69; .tangle-solidup., 1-66; .increment., 1-63; .box-solid., 1-60; .quadrature., 1-58; .diamond., 1-54; and X, 1-51. Unidirectional error bars indicate the standard deviations. Data are representative of three assays using different neutrophil preparations.

The subject of test [7] is human neutrophils. Format: cell-based, human neutrophils from donor blood buffy coats. The conditions noted are these: read-out: Chemotaxis ED50; n = 3.
Text: as §3, §4, §2
FIG. 2 is a graph showing neutrophil chemotaxis activity of NH2 -terminal deletion IL-8 analogs. The chemotaxis index (stimulated migration/control random migration) was determined at the indicated concentrations of IL-8 1-72: .oval-solid., 1-72; .tangle-solidup., 3-72; .increment., 4-72; .diamond., 5-72; .box-solid., 6-72; .quadrature., 7-72; and .smallcircle., 77-residue IL-8. Unidirectional error bars indicate the standard deviations. Data are representative of three assays using different neutrophil preparations.
FIG. 4 is a graph showing neutrophil chemotaxis activity of the COOH-terminal deletion IL-8 analogs. The chemotactic index (stimulated migrations/control random migration) was determined at the indicated concentrations of IL-8 1-72: .oval-solid., 1-72; .smallcircle., 1-69; .tangle-solidup., 1-66; .increment., 1-63; .box-solid., 1-60; .quadrature., 1-58; .diamond., 1-54; and X, 1-51. Unidirectional error bars indicate the standard deviations. Data are representative of three assays using different neutrophil preparations.

Like-named read-outs stand apart in the source and are kept apart here. Bounds are passed on as bounds.

In test [1], IL-8, ELQ (7-72) (ligand) displayed a Kd of 650 nM.
As to IL-8 (5-72) (ligand), the Kd in test [1] was 0.8 nM; in test [2], 0.76 nM.
On to “SEQ ID NO: 4, Glu-Leu-Leu-Cys-Gln-Cys... [IL-8, ELL (7-72)]”, for which the affinity in test [3], expressed as Kd, was 1290 nM. In addition, the IC50 in test [4] stood at 0.7 µM.
In the same order, the values of “SEQ ID NO: 8, Ala-Ala-Arg-Cys-Gln-Cys... [IL-8, AAR (7-72)]” are 7.9 nM and 0.3 µM.
In the case of “IL-8 (6-72), SEQ ID NO: 12, Arg-Cys-Gln-Cys...”, the Kd in test [5] turned out to be 31 nM; in test [3] it was 50 nM. Further, in test [4], the IC50 is 0.3 µM.
On to “IL-8 (4-72), SEQ ID NO: 2, Glu-Leu-Arg-Cys-Gln-Cys...”, for which the Kd in test [5] and in test [3] was 0.22 nM throughout. In addition, the figures for the EC50 in test [6] and in test [7] were 4.5 nM and 0.25 nM, respectively.
With IL-8 (6-72) (ligand), the Kd in test [1] worked out at 50 nM; in test [2] it was 31 nM.
Turning to “SEQ ID NO: 5, Glu-Leu-Lys-Cys-Gln-Cys... [IL-8, ELK (7-72)]”, the Kd in test [3] was 220 nM. In test [4], the IC50 turned out to be 1.8 µM.
As to IL-8, AAR (7-72) (ligand), the Kd in test [1] came out at 7.9 nM.
Regarding IL-8 residues 1-60, the EC50 in test [6] came to 220 nM; in test [7], 3.9 nM.
Turning to IL-8, ELL (7-72) (ligand), the Kd in test [1] stood at 1290 nM.
In test [1], IL-8, IR (7-72) (ligand) yielded a Kd of 16 nM.
Consider “IL-8 (7-72), SEQ ID NO: 13, Cys-Gln-Cys...”, for which the Kd in test [3] is greater than 10000 nM.
For IL-8, ELOrn (7-72) (ligand), the Kd in test [1] came to 400 nM.
With “SEQ ID NO: 10, Ile-Arg-Cys-Gln-Cys... [IL-8, IR (7-72)]”, binding in test [3] was put at a Kd of 16 nM. Besides, the IC50 in test [4] was found to be 0.3 µM.
With IL-8 residues 1-54, in test [5], the Kd worked out at 10 nM. Moreover, the figures for the EC50 in test [6] and in test [7] were 580 nM and 6.7 nM, respectively.
In test [2], 77-residue IL-8 (ligand) registered a Kd of 0.35 nM.
IL-8, ELK (7-72) (ligand) registered a Kd in test [1] of 220 nM.
IL-8 (4-72) (ligand): the Kd in test [1] and in test [2] was 0.22 nM in each case.
With IL-8 residues 3-72, the EC50 came to 2.5 nM in test [6] and 0.21 nM in test [7].
On to “IL-8 (1-72), SEQ ID NO: 1, Ser-Ala-Lys-Glu-Leu-Arg-Cys-Gln-Cys... [reference compound]”, for which the results for the EC50 in test [6] and in test [7] were 13 nM and 0.36 nM, respectively.
For “IL-8 (5-72), SEQ ID NO: 9, Leu-Arg-Cys-Gln-Cys...”, the Kd in test [5] worked out at 0.76 nM; in test [3], 0.8 nM. The EC50 in test [6] came to 1000 nM; in test [7], 0.48 nM.
In turn, IL-8 (7-72) (ligand) showed a Kd in test [1] greater than 10000 nM.
Molecule IL-8, QR (7-72) (ligand) had a Kd in test [1] of 34 nM.
For the molecule IL-8 residues 1-66, the EC50 in test [6] was determined as 13 nM; in test [7] it was 0.32 nM.
In turn, IL-8, ELNle (7-72) (ligand) came in with a Kd in test [1] of 170 nM.
IL-8 residues 1-69: the EC50 was found to be 7.5 nM in test [6] and 0.14 nM in test [7].
As to IL-8 residues 1-51, in test [5], the Kd came to 17 nM. Besides, the EC50 in test [6] was 680 nM; in test [7] it was 7.1 nM.
Take “SEQ ID NO: 3, Glu-Leu-Gln-Cys-Gln-Cys... [IL-8, ELQ (7-72)]”: the Kd in test [3] was found to be 650 nM. Moreover, the IC50 in test [4] is 1.1 µM.
Consider “IL-8 with 5 additional NH2-terminal residues [77-residue IL-8]”, for which, in test [5], the Kd came to 0.35 nM. For the same molecule, the EC50 in test [6] was determined as 25 nM; in test [7], 0.69 nM.
Regarding IL-8 residues 1-63, the EC50 is 150 nM in test [6] and 1.7 nM in test [7].
As to “SEQ ID NO: 11, Gln-Arg-Cys-Gln-Cys... [IL-8, QR (7-72)]”, in test [3], the affinity, expressed as Kd, was 34 nM. Besides, in test [4], the IC50 amounted to 2.1 µM.
Take “SEQ ID NO: 7, Glu-Leu-Nle-Cys-Gln-Cys... (Nle = norleucine) [IL-8, ELNle (7-72)]”: binding in test [3] was characterised by a dissociation constant (Kd) of 170 nM. The IC50 in test [4] turned out to be 1 µM.
As to IL-8 residues 1-58, the EC50 in test [6] was found to be 680 nM; in test [7] it was 8.9 nM.

B1: IL-8 1-51 (ligand)
chain: SAKELRCQCIKTYSKPFHPKFIKELRVIESGPHCANTEIIVKLSDGRELCL
For the molecule B1, in test [2], the Kd is 17 nM.

B2: IL-8 1-54 (ligand)
chain: SAKELRCQCIKTYSKPFHPKFIKELRVIESGPHCANTEIIVKLSDGRELCLDPK
Regarding B2, the Kd in test [2] stood at 10 nM.
